Drawing on patent US10047096B2, “Substituted pyridobenzodiazepinone-derivatives and use thereof” (Bayer Pharma Aktiengesellschaft, priority 2014, dated 2018), this text covers IC50 for 35 compounds.

Chain of human PDGFRβ (P09619 561-1106): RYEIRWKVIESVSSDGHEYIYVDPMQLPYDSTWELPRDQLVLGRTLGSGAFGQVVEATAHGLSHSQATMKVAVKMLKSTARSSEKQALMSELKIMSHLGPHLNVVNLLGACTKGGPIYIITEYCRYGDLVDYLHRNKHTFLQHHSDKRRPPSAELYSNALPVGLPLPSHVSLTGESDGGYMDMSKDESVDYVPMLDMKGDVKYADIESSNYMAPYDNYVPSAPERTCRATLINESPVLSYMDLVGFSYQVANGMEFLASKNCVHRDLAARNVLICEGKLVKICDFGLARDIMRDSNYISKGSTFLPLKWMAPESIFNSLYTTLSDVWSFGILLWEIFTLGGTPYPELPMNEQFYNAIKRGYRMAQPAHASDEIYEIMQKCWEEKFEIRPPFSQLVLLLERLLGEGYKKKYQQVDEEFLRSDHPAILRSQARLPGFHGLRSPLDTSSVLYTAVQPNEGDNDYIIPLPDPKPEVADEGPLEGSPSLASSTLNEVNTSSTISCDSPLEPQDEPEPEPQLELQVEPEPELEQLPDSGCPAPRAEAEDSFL

In this experiment the target is human PDGFRβ (Homo sapiens (Human), UniProt P09619). In words: PDGFRβ kinase assay (PDGFRβ-HTRF). It is filed as biochemical. As to conditions: 10 μM ATP; some mean values from multiple determinations. How it is done:
The PDGFRβ-inhibitory activity of the inventive compounds was determined in the PDGFRβ-HTRF assay described hereinafter.
The kinase used was a recombinant fusion protein composed of N-terminal GST and a C-terminal fragment of human PDGFRβ (amino acids R561-L1106), expressed in baculovirus-infected insect cells (Sf9) and purified by affinity chromatography (from ProQinase GmbH, Freiburg, Germany). The substrate used for the kinase reaction was biotinylated poly-Glu,Tyr (4:1) copolymer (from Cisbio Bioassays, Codolet, France).
For the assay, 50 nl of a 100-fold concentrated solution of the test substance in DMSO was pipetted into a black “low-volume 384 well” microtitre plate (from Greiner Bio-One, Frickenhausen, Germany), then 2 μl of a solution of PDGFRβ in assay buffer [50 mM HEPES/NaOH pH 7.5, 10 mM MgCl2, 2.5 mM dithiothreitol, 0.01% (v/v) Triton-X100 (from Sigma)] was added and the mixture was incubated for 15 min, in order to enable preliminary binding of the substance to the enzyme before the kinase reaction. […] The resulting mixture was incubated at 22° C. for 1 h to allow formation of a complex of the biotinylated phosphorylated substrate and the detection reagents.
Subsequently, the amount of the phosphorylated substrate was evaluated by measuring the resonance energy transfer from the PT66-Eu chelate to the streptavidin-XL665. […] The IC50 values were calculated by a 4-parameter fit.
On the technique in general: In TR-FRET formats the signal depends on donor and acceptor labels being close together.
What is called IC50 is the concentration that gives 50% inhibition. A high value points to weaker potency in that assay. The compound `Cc1ccc(O)cc1Nc1ccnc2c1C(=O)Nc1cc(CNC3CCS(=O)(=O)C3)ccc1N2` (centres unmarked) [Example 113] came in with an IC50 of 3.6 nM. To `Cc1ccc(O)cc1Nc1ccnc2c1C(=O)Nc1cc(CNCCn3ccnn3)ccc1N2` [Example 97] belongs 2.45 nM; to `Cc1cc(F)c(Nc2ccnc3c2C(=O)Nc2cc(CN4CCC(CO)C4)ccc2N3)cc1O` (racemic) [Example 177, rac-4-[(2-Fluoro-5-hydroxy-4-methylphenyl)amino]-8-{[3-(hydroxymethyl)pyrrolidin-1-yl]methyl}-6,11-dihydro-5H-pyrido[2,3-b][1,5]benzodiazepin-5-one], 1.71 nM; to `COC1CCCN(Cc2ccc3c(c2)NC(=O)c2c(Nc4cc(O)c(C)cc4F)ccnc2N3)C1` (racemic) [Example 66, rac-4-[(2-Fluoro-5-hydroxy-4-methylphenyl)amino]-8-[(3-methoxypiperidin-1-yl)methyl]-6,11-dihydro-5H-pyrido[2,3-b][1,5]benzodiazepin-5-one], 3.75 nM.

As for `Cc1ccc(O)cc1Nc1ccnc2c1C(=O)Nc1cc(CNC(C)c3ccco3)ccc1N2` (centres unmarked) [Example 132], the IC50 turned out to be 2.89 nM.

Consider `Cc1ccc(O)cc1Nc1ccnc2c1C(=O)Nc1cc(CNC3CCCCC3C)ccc1N2` (centres unmarked) [Example 124], for which the 50% inhibitory concentration (IC50) was determined as 3.02 nM. Turning to `Cc1ccc(O)cc1Nc1ccnc2c1C(=O)Nc1cc(CNCCOCC3CCCO3)ccc1N2` (centres unmarked) [Example 133], the half-maximal inhibitory concentration (IC50) is 7.53 nM. With `Cc1cc(F)c(Nc2ccnc3c2C(=O)Nc2cc(C#N)ccc2N3)cc1O` [Example 27, 4-[(2-Fluoro-5-hydroxy-4-methylphenyl)amino]-5-oxo-6,11-dihydro-5H-pyrido[2,3-b][1,5]benzodiazepine-8-carbonitrile], the midpoint of inhibition, the IC50, lay at 15.3 nM. In the case of `Cc1ccc(O)cc1Nc1ccnc2c1C(=O)Nc1cc(C(=O)NCc3cccc(Cl)c3)ccc1N2` [Example 225, N-(3-Chlorobenzyl)-4-[(5-hydroxy-2-methylphenyl)amino]-5-oxo-6,11-dihydro-5H-pyrido[2,3-b][1,5]benzodiazepine-8-carboxamide], the concentration for half-maximal inhibition (IC50) amounted to 14.1 nM. In turn, `Cc1cc(F)c(Nc2ccnc3c2C(=O)Nc2cc(CN4CCCC(OCC(F)(F)F)C4)ccc2N3)cc1O` (racemic) [Example 89, rac-4-[(2-Fluoro-5-hydroxy-4-methylphenyl)amino]-8-{[3-(2,2,2-trifluoroethoxy)piperidin-1-yl]methyl}-6,11-dihydro-5H-pyrido[2,3-b][1,5]benzodiazepin-5-one] gave an IC50 of 3.51 nM.

The compound `CC[C@@H](C)[C@@H](CO)NCc1ccc2c(c1)NC(=O)c1c(Nc3cc(O)c(C)cc3F)ccnc1N2` [Example 172, 4-[(2-Fluoro-5-hydroxy-4-methylphenyl)amino]-8-({[(2S,3R)-1-hydroxy-3-methylpentan-2-yl]amino}methyl)-6,11-dihydro-5H-pyrido[2,3-b][1,5]benzodiazepin-5-one] came in with an IC50 of 4.11 nM. Compound `Cc1ccc(O)cc1Nc1ccnc2c1C(=O)Nc1cc(CNC(C)(C)CN3CCCC3)ccc1N2` [Example 131] showed an IC50 of 2.05 nM.

As to `Cc1cc(F)c(Nc2ccnc3c2C(=O)Nc2cc(CN4CCC[C@@H](N)C4)ccc2N3)cc1O` [Example 212, 8-{[(3R)-3-Aminopiperidin-1-yl]methyl}-4-[(2-fluoro-5-hydroxy-4-methylphenyl)amino]-6,11-dihydro-5H-pyrido[2,3-b][1,5]benzodiazepin-5-one], inhibition was half-maximal at 0.829 nM (IC50). The same measure for `Cc1cc(F)c(Nc2ccnc3c2C(=O)Nc2cc(CN(C)CCCO)ccc2N3)cc1O` [Example 221, 4-[(2-Fluoro-5-hydroxy-4-methylphenyl)amino]-8-{[(3-hydroxypropyl)(methyl)amino]methyl}-6,11-dihydro-5H-pyrido[2,3-b][1,5]benzodiazepin-5-one]: 1.74 nM; for `Cc1cc(F)c(Nc2ccnc3c2C(=O)Nc2cc(CN4CCN5C(=O)C(C)NC(=O)C5C4)ccc2N3)cc1O` (racemic) [Example 194, rac-8-({4-[(2-Fluoro-5-hydroxy-4-methylphenyl)amino]-5-oxo-6,11-dihydro-5H-pyrido[2,3-b][1,5]benzodiazepin-8-yl}methyl)-3-methyltetrahydro-2H-pyrazino[1,2-a]pyrazine-1,4(3H,6H)-dione]: 1.92 nM. To `CCN(Cc1ccc2c(c1)NC(=O)c1c(Nc3cc(O)c(C)cc3F)ccnc1N2)CC(C)O` (single isomer, unassigned; ent-8) [Example 206, ent-8-{[Ethyl(2-hydroxypropyl)amino]methyl}-4-[(2-fluoro-5-hydroxy-4-methylphenyl)amino]-6,11-dihydro-5H-pyrido[2,3-b][1,5]benzodiazepin-5-one (Enantiomer 2)] belongs 1.55 nM; to `Cc1ccc(O)cc1Nc1ccnc2c1C(=O)Nc1cc(CNC3CCOC3)ccc1N2` (centres unmarked) [Example 99], 2.97 nM. `Cc1cc(F)c(Nc2ccnc3c2C(=O)Nc2cc(CN4CCC(N)CC4)ccc2N3)cc1O` [Example 218, 8-[(4-Aminopiperidin-1-yl)methyl]-4-[(2-fluoro-5-hydroxy-4-methylphenyl)amino]-6,11-dihydro-5H-pyrido[2,3-b][1,5]benzodiazepin-5-one] came in with an IC50 of 1.06 nM. As to `Cc1cc(F)c(Nc2ccnc3c2C(=O)Nc2cc(CN[C@@H](CO)Cc4cnc[nH]4)ccc2N3)cc1O` [Example 184, 4-[(2-Fluoro-5-hydroxy-4-methylphenyl)amino]-8-({[(2R)-1-hydroxy-3-(1H-imidazol-5-yl)propan-2-yl]amino}methyl)-6,11-dihydro-5H-pyrido[2,3-b][1,5]benzodiazepin-5-one], the IC50 amounted to 1.62 nM. The compound `Cc1ccc(O)cc1Nc1ccnc2c1C(=O)Nc1cc(CNC3CC3)ccc1N2` [Example 151] gave an IC50 of 3.71 nM. The same measure for `CCN(Cc1ccc2c(c1)NC(=O)c1c(Nc3cc(O)c(C)cc3F)ccnc1N2)CC(C)O` (racemic) [Example 204, rac-8-{[Ethyl(2-hydroxypropyl)amino]methyl}-4-[(2-fluoro-5-hydroxy-4-methylphenyl)amino]-6,11-dihydro-5H-pyrido[2,3-b][1,5]benzodiazepin-5-one]: 1.71 nM; for `CCC(CC)CNCc1ccc2c(c1)NC(=O)c1c(Nc3cc(O)ccc3C)ccnc1N2` [Example 93]: 4.98 nM; for `CCCNCc1ccc2c(c1)NC(=O)c1c(Nc3cc(O)ccc3C)ccnc1N2` [Example 125]: 1.97 nM.

`N#Cc1ccc2c(c1)NC(=O)c1c(Nc3cc(O)c(Cl)cc3F)ccnc1N2` [Example 37, 4-[(4-chloro-2-fluoro-5-hydroxyphenyl)amino]-5-oxo-6,11-dihydro-5H-pyrido[2,3-b][1,5]benzodiazepine-8-carbonitrile] registered an IC50 of 4.6 nM. `Cc1ccc(O)cc1Nc1ccnc2c1C(=O)Nc1cc(CNCc3ccc(F)cc3)ccc1N2` [Example 119]: 1.92 nM corresponded to half-maximal inhibition (IC50). For `Cc1ccc(O)cc1Nc1ccnc2c1C(=O)Nc1cc(CNCC(C)(C)C)ccc1N2` [Example 142], inhibition was half-maximal at 2.11 nM (IC50). On to `CCOC(=O)[C@H]1C[C@H](NCc2ccc3c(c2)NC(=O)c2c(Nc4cc(O)c(C)cc4F)ccnc2N3)C1` [Example 192, trans-Ethyl 3-[({4-[(2-fluoro-5-hydroxy-4-methylphenyl)amino]-5-oxo-6,11-dihydro-5H-pyrido[2,3-b][1,5]benzodiazepin-8-yl}methyl)amino]cyclobutanecarboxylate], for which half-maximal inhibition (IC50) required 1.61 nM.

`Cc1ccc(Nc2ccnc3c2C(=O)Nc2cc(C#N)ccc2N3)cc1O` [Example 3, 4-[(3-Hydroxy-4-methylphenyl)amino]-5-oxo-6,11-dihydro-5H-pyrido[2,3-b][1,5]benzodiazepine-8-carbonitrile]: the IC50 worked out at 3.82 nM. The compound `Cc1ccc(O)cc1Nc1ccnc2c1C(=O)Nc1cc(CNCCC(=O)N(C)C)ccc1N2` [Example 143] registered an IC50 of 5.55 nM. To `Cc1ccc(O)cc1Nc1ccnc2c1C(=O)Nc1cc(CNCC3CNC(=O)C3)ccc1N2` (centres unmarked) [Example 130] belongs 2.31 nM; to `Cc1ccc(O)cc1Nc1ccnc2c1C(=O)Nc1cc(CNCCCCO)ccc1N2` [Example 17, 8-{[(4-Hydroxybutyl)amino]methyl}-4-[(5-hydroxy-2-methylphenyl)amino]-6,11-dihydro-5H-pyrido[2,3-b][1,5]benzodiazepin-5-one], 5.63 nM. Consider `CCOCCC(C)NCc1ccc2c(c1)NC(=O)c1c(Nc3cc(O)ccc3C)ccnc1N2` (centres unmarked) [Example 118], for which the IC50 came out at 4.02 nM. To `Cc1cc(F)c(Nc2ccnc3c2C(=O)Nc2cc(C(=O)N4CCC(CCO)C4)ccc2N3)cc1O` (racemic) [Example 181, rac-4-[(2-Fluoro-5-hydroxy-4-methylphenyl)amino]-8-{[3-(2-hydroxyethyl)pyrrolidin-1-yl]carbonyl}-6,11-dihydro-5H-pyrido[2,3-b][1,5]benzodiazepin-5-one] belongs 8.91 nM; to `CCOC(=O)Nc1ccc(Nc2ccnc3c2C(=O)Nc2cc(C#N)ccc2N3)cc1O` [Example 4, Ethyl {4-[(8-cyano-5-oxo-6,11-dihydro-5H-pyrido[2,3-b][1,5]benzodiazepin-4-yl)amino]-2-hydroxyphenyl}carbamate], 352 nM. Take `Cc1ccc(O)cc1Nc1ccnc2c1C(=O)Nc1cc(CNCCN3CCOCC3)ccc1N2` [Example 18, 4-[(5-Hydroxy-2-methylphenyl)amino]-8-({[2-(morpholin-4-yl)ethyl]amino}methyl)-6,11-dihydro-5H-pyrido[2,3-b][1,5]benzodiazepin-5-one]: the IC50 was determined as 5.19 nM.
